pIC50: −log10 of the molar value. Counter-ions that a name gives are not always drawn. Like-named read-outs stand apart in the source and are kept apart here. Values belong to the compound of their own block, whether it stands above or below them.
Legend:
MMP-13 = MMP-13 (Homo sapiens, UniProt P45452); assay: MMP-13 inhibition (thiopeptide or fluorescent peptide substrate); assay type: biochemical
MMP-1 = molecular target: T1, MMP-1 (Homo sapiens, UniProt P03956); assay: MMP-1 inhibition (thiopeptide or fluorescent peptide substrate); assay type: biochemical
T1 sequence (P03956 100-469): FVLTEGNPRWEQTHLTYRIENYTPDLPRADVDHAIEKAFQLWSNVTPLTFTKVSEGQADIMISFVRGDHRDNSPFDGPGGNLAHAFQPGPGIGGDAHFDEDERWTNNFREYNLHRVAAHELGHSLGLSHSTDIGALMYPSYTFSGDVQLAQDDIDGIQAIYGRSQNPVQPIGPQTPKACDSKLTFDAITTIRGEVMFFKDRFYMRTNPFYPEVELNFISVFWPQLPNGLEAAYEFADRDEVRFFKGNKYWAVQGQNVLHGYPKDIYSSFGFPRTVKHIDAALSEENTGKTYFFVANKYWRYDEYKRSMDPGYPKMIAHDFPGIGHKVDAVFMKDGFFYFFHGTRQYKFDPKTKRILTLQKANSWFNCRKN

TACE = TACE (Homo sapiens, UniProt P78536); assay: TACE inhibition (fluorescent peptidyl substrate); assay type: biochemical; conditions: for inhibition at 1 µM: read-out: % Inhibition at 1 uM
THP-1 cells = assay: THP-1 Soluble Protein Assay (LPS-stimulated; ELISA of TNF-a, TNF-R p75/80, TNF-R p55/60, IL-8); assay type: cell-based, human; conditions: for inhibition at 3 µM: Homo sapiens
MMP-9 = MMP-9 (Homo sapiens, UniProt P14780); assay: MMP-9 inhibition (thiopeptide or fluorescent peptide substrate); assay type: biochemical
[1] = THP-1, read-out: THP % inhibition @ 3 µM, 3 µM
[2] = In Vitro Inhibition of TACE, 1 uM
[3] = THP-1, 3 µM, read-out: THP % Inhibition @ 3µM

Sequence of MMP-9 (P14780 107-707 limits assumed): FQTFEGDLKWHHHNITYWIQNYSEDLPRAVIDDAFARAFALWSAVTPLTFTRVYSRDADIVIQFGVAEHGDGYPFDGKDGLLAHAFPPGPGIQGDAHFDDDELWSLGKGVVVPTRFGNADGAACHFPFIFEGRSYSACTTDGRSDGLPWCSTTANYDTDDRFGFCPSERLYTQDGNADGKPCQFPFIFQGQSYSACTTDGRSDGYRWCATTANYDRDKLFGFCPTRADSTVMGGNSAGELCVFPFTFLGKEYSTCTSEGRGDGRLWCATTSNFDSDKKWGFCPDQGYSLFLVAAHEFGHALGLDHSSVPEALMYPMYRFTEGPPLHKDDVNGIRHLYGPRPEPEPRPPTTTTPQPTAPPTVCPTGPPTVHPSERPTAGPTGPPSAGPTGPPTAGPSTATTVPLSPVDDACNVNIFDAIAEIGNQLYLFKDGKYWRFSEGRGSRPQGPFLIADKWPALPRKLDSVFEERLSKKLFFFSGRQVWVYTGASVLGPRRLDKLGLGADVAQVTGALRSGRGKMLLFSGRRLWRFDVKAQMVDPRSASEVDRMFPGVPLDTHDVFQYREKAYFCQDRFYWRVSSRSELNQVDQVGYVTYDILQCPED
Sequence of TACE (P78536 215-824): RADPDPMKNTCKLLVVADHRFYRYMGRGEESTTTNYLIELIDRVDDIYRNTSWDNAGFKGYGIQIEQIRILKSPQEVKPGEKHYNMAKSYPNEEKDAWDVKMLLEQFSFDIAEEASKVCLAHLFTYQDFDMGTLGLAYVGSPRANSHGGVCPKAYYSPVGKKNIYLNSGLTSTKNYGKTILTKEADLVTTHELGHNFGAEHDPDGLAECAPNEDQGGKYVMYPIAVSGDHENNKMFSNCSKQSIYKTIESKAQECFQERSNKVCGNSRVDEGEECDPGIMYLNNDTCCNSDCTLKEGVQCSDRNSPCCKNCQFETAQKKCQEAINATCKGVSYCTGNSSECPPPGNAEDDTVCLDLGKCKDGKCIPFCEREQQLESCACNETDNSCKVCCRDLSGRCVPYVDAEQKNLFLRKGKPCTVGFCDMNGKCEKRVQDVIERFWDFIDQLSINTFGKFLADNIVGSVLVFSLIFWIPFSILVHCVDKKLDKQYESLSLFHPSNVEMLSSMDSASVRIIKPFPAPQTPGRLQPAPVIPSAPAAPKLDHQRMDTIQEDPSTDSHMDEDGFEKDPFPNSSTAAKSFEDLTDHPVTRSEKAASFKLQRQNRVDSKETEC

Compound: 9-({[4-(2-Butynyloxy)phenyl]sulfonyl}-N-hydroxy-1-thia-4-azaspiro [5,5]undecane-5-carboxamide [Example 237]
pIC50 (MMP-13): 7.92 | pIC50 (MMP-1): 7.21 | pIC50 (TACE; read-out: TACE IC50): 6.67 | THP % inhibition @ 3 µM (THP-1 cells): 90%

Compound: CC#CCOc1ccc(S(=O)(=O)N2CCSC(C)(C)C2C(=O)NO)cc1 (centres unmarked) [235, 38]
pIC50 (MMP-1): 8.18 | pIC50 (TACE; read-out: TACE IC50): 8.08 | inhibition at 3 µM (THP-1 cells; [1]): 94%

Compound: CC#CCOc1ccc(S(=O)(=O)N(C)CC(=O)NO)cc1 [Example 17, 2-[(4-But-2-ynyloxy-benzenesulfonyl)-methyl-amino]-N-hydroxy-acetamide]
pIC50 (MMP-13): 7.00 | pIC50 (MMP-1): 5.72 | inhibition at 3 µM (THP-1 cells; [1]): 33%

Compound: CC#CCOc1ccc(S(=O)(=O)N[C@H](Cc2ccc(O)cc2)C(=O)NO)cc1 [Example 84]
inhibition at 1 µM (TACE; [2]): 101%

Compound: CC#CCOc1ccc(S(=O)(=O)N[C@@H](CCC(=O)O)C(=O)NO)cc1 [Example 86]
inhibition at 1 µM (TACE; [2]): 37.5%

Compound: CC#CCOc1ccc(S(=O)(=O)N[C@@H](Cc2cnc[nH]2)C(=O)NO)cc1 [Example 87]
inhibition at 1 µM (TACE; [2]): 47.8%

Compound: CC#CCOc1ccc(S(=O)(=O)N2C[C@H](OCc3ccccc3)C[C@H]2C(=O)NO)cc1 [Example 88]
inhibition at 1 µM (TACE; [2]): 8.4%

Compound: CC#CCOc1ccc(S(=O)(=O)N[C@H](C(=O)NO)[C@@H](C)CC)cc1 [Example 89]
inhibition at 1 µM (TACE; [2]): 56.8%

Compound: CC#CCOc1ccc(S(=O)(=O)N[C@@H](CC(C)C)C(=O)NO)cc1 [Example 90]
inhibition at 1 µM (TACE; [2]): 58.9%

Compound: CC#CCOc1ccc(S(=O)(=O)N[C@@H](CCCCN)C(=O)NO)cc1 [Example 92]
inhibition at 1 µM (TACE; [2]): 102%

Compound: CC#CCOc1ccc(S(=O)(=O)N[C@@H](CCCC)C(=O)NO)cc1 [Example 93]
inhibition at 1 µM (TACE; [2]): 61.7%

Compound: CC#CCOc1ccc(S(=O)(=O)N[C@@H](Cc2ccccc2)C(=O)NO)cc1 [Example 94]
inhibition at 1 µM (TACE; [2]): 38.2%

Compound: CC#CCOc1ccc(S(=O)(=O)N[C@H](C(=O)NO)c2ccccc2)cc1 [Example 95]
inhibition at 1 µM (TACE; [2]): 98.6%

Compound: CC#CCOc1ccc(S(=O)(=O)N[C@@H](CSCNC(C)=O)C(=O)NO)cc1 [Example 96]
inhibition at 1 µM (TACE; [2]): 22%

Compound: CC#CCOc1ccc(S(=O)(=O)N[C@@H](COCc2ccccc2)C(=O)NO)cc1 [Example 97]
inhibition at 1 µM (TACE; [2]): 67.5%

Compound: CC#CCOc1ccc(S(=O)(=O)N[C@@H](CO)C(=O)NO)cc1 [Example 98]
inhibition at 1 µM (TACE; [2]): 2.5%

Compound: CC#CCOc1ccc(S(=O)(=O)N[C@H](C(=O)NO)[C@@H](C)O)cc1 [Example 100]
inhibition at 1 µM (TACE): 15.4%

Compound: CC#CCOc1ccc(S(=O)(=O)N[C@H](C(=O)NO)C(C)C)cc1 [Example 104]
inhibition at 1 µM (TACE): 38.5%

Compound: CC#CCOc1ccc(S(=O)(=O)N(C)[C@@H](C)C(=O)NO)cc1 [Example 107, (2S)-2-[(4-But-2-ynyloxy-benzenesulfonyl)-methyl-amino]-N-hydroxy-propionamide]
pIC50 (MMP-9): 7.17 | pIC50 (MMP-1): 6.48 | pIC50 (TACE; read-out: TACE IC50): 8.35

Compound: CC#CCOc1ccc(S(=O)(=O)N(C)C(CSCc2cccnc2)C(=O)NO)cc1 (centres unmarked) [Example 155, 2-[(4-But-2-ynyloxy-benenesulfonyl)-methyl-amino]-N-hydroxy-3-(pyridin-3-ylmethylsulfanyl)-butyramide]
pIC50 (MMP-9): 7.85 | inhibition at 3 µM (THP-1 cells; [1]): 93%

Compound: CC#CCOc1ccc(S(=O)(=O)N2CCN(C(=O)c3ccccc3)CCC2C(=O)NO)cc1 (centres unmarked) [Example 289, 1-Benzoyl-4-{[4-(2-butynyloxy)phenyl]sulfonyl}-N-hydroxy-1,4-diazepane-5-carboxamide]
pIC50 (MMP-13): 8.40

Compound: CC#CCOc1ccc(S(=O)(=O)N2CCN(C)CCC2C(=O)NO)cc1 (centres unmarked) [Example 293, 4-{[4-(2-Butynyloxy)phenyl]sulfonyl}-N-hydroxy-1-methyl-1,4-diazepane-5-carboxamide]
pIC50 (MMP-13): 7.68 | inhibition at 3 µM (THP-1 cells; [3]): 82%

Compound: CC#CCOc1ccc(S(=O)(=O)N[C@H](CCCNC(=O)Oc2ccc(OC)cc2)C(=O)NO)cc1 [Example 372, 4-Methoxyphenyl (4R)-4-({[4-(but-2-ynyloxy)phenyl]sulfonyl}amino)-5-(hydroxyamino)-5-oxopentylcarbamate]
pIC50 (TACE): 8.08

Second part, led by results:

inhibition at 1 µM (TACE; [2]): 28.5%
Compound: CC#CCOc1ccc(S(=O)(=O)N[C@H](C(=O)NO)[C@@H](C)OCc2ccccc2)cc1 [Example 99]

inhibition at 1 µM (TACE; [2]): 30.2%
Compound: CC#CCOc1ccc(S(=O)(=O)N[C@@H](Cc2c[nH]c3ccccc23)C(=O)NO)cc1 [Example 101]

inhibition at 1 µM (TACE; [2]): 27.3%
Compound: CC#CCOc1ccc(S(=O)(=O)N[C@@H](Cc2ccc(O)cc2)C(=O)NO)cc1 [Example 102]

inhibition at 1 µM (TACE; [2]): 52.8%
Compound: CC#CCOc1ccc(S(=O)(=O)N[C@@H](Cc2ccc(OCc3ccccc3)cc2)C(=O)NO)cc1 [Example 103]

pIC50 (TACE; read-out: TACE IC50): 6.90
Compound: CC#CCOc1ccc(S(=O)(=O)N(CCCCN2CCN(C)CC2)C(C(=O)NO)C(C)C)cc1 (centres unmarked) [Example 122, 2-{{[4-(2-Butynyloxy)phenyl]sulfonyl}[4-(4-methyl-1-piperazinyl)butyl]amino}-N-hydroxy-3-methylbutanamide]
inhibition at 3 µM (THP-1 cells; [1]): 69%

pIC50 (MMP-13): 6.12 | pIC50 (MMP-9): 5.82 | pIC50 (TACE; read-out: TACE IC50): 6.92
Compound: C#CCNc1ccc(S(=O)(=O)N(C)CC(=O)NO)cc1 [Example 133, N-Hydroxy-2-(methyl{[4-(prop-2-ynylamino)phenyl]sulfonyl}amino)acetamide]
inhibition at 3 µM (THP-1 cells; [1]): 8%

pIC50 (MMP-13): 8.35 | pIC50 (MMP-9): 7.96 | pIC50 (TACE; read-out: TACE IC50): 8.32
Compound: CC#CCOc1ccc(S(=O)(=O)N(C)C(CSCc2ccccc2)C(=O)NO)cc1 (centres unmarked) [Example 156, 3-(Benzylthio) -2-[[[4-(2-butynyloxy)phenyl]sulfonyl]methylamino] -N-hydroxypropanamide]
inhibition at 3 µM (THP-1 cells; [1]): 75%

MMP-1 %@1 (MMP-1; @1 (concentration unit not given)): 25%@1
Compound: CC#CCOc1ccc(S(=O)(=O)N(C)C(C(=O)NO)c2ccc(OCCCNC(=O)OCc3ccccc3)cc2)cc1 (centres unmarked) [Example 196, Benzyl3-{4-[1-[{[4-(2-butynyloxy)phenyl]sulfonyl}(methyl)amino]-2-(hydroxyamino)-2-oxoethyl]phenoxy}propylcarbamate]
inhibition at 3 µM (THP-1 cells; [1]): 87%

pIC50 (MMP-13): 8.17 | pIC50 (MMP-1): 7.42 | pIC50 (TACE; read-out: TACE IC50): 6.64
Compound: CC#CCOc1ccc(S(=O)(=O)N2CCSC(CC)(CC)C2C(=O)NO)cc1 (centres unmarked) [Example 238]
inhibition at 3 µM (THP-1 cells; [1]): 73%

pIC50 (MMP-9): 6.97 | pIC50 (TACE; Tables 11-14, read-out: TACE IC50): 7.23
Compound: CC#CCOc1ccc(S(=O)(=O)N2CC(CNC(=O)OC(C)(C)C)SC(C)(C)C2C(=O)NO)cc1 [Example 274, tert-Butyl{(2S,5S)-4-{[4-(2-butynyloxy)phenyl]sulfonyl}-5-[(hydroxyamino)carbonyl]-6,6-dimethylthiomorpholinyl}methylcarbamate]
THP % inhibition @ 3 µM (THP-1 cells): 84%

pIC50 (MMP-9): 7.19
Compound: CC#CCOc1ccc(S(=O)(=O)N2C[C@H](CN)SC(C)(C)[C@@H]2C(=O)NO)cc1 [Example 276, (3S,6S)-Cis-6-(aminomethyl)-4-{[4-(2-butynyloxy)phenyl]sulfonyl}-N-hydroxy-2,2-dimethyl-3-thiomorpholinecarboxamide hydrochloride]
inhibition at 3 µM (THP-1 cells; [3]): 94%

inhibition at 1 µM (TACE; [2]): 40%
Compound: CC#CCOc1ccc(S(=O)(=O)N[C@H](CC(=O)O)C(=O)NO)cc1 [Example 298]

inhibition at 1 µM (TACE; [2]): 3%
Compound: CC#CCOc1ccc(S(=O)(=O)N[C@H](CSCc2ccc(OC)cc2)C(=O)NO)cc1 [Example 302]

pIC50 (TACE; Table 15: In Vitro Inhibition of TACE): 8.24
Compound: CC#CCOc1ccc(S(=O)(=O)N[C@H](Cc2ccc(F)c(F)c2)C(=O)NO)cc1 [Example 315]

From patent EP1144368B1, “ACETYLENIC ALPHA-AMINO ACID-BASED SULFONAMIDE HYDROXAMIC ACID TACE INHIBITORS” (priority 1999, dated 2000)
